Assay results reported in US10683282B2, “Multi-substituted pyrimidine derivatives with excellent kinase inhibitory activities” (KOREA INSTITUTE OF SCIENCE AND TECHNOLOGY, priority 2018, dated 2020).

Key:
FLT3 = molecular target: T1, FLT3 (Homo sapiens, UniProt P36888); test: Kinase screening, HotSpot assay (Reaction Biology); assay type: biochemical
T1 construct: purchased Reaction Biology Corporation
T1 sequence (P36888 27-993): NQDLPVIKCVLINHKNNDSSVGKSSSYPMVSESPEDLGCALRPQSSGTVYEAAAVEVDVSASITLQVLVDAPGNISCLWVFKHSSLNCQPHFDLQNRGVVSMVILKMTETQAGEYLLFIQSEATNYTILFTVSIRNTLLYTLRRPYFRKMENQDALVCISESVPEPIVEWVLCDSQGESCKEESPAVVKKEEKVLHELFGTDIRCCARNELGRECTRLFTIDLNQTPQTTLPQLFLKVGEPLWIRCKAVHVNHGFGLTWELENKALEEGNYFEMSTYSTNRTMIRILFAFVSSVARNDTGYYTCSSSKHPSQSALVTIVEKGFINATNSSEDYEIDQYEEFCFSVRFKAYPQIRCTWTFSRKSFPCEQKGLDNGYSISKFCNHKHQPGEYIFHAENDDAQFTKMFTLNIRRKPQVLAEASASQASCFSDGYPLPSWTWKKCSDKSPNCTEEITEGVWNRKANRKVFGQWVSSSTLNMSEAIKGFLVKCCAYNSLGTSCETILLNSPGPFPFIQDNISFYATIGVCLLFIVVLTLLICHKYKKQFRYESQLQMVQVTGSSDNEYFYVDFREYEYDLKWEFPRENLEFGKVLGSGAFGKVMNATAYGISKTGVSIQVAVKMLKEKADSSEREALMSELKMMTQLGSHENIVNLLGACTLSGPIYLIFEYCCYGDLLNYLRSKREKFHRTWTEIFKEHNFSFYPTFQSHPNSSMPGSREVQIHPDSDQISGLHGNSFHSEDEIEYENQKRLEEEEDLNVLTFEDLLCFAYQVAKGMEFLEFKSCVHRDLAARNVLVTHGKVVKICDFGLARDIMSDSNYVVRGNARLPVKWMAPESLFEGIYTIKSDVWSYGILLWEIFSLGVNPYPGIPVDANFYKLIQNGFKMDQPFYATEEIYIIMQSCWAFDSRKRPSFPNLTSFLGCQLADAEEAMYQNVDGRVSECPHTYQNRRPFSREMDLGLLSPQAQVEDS
Protocol: Kinase screening was performed using a “HotSpot” assay platform method by Reaction Biology Corporation. The reaction buffer used herein contained 20 mM HEPES (pH 7.5), 10 mM MgCl2, 1 mM EGTA, 0.02% Brij35, 0.02 mg/mL BSA, 0.1 mM Na3VO4, 2 mM DTT and 1% DMSO. The required cofactors were added in accordance with the kinase reaction. Freshly made buffer and cofactors were added at a concentration of 20 μM during the selected enzyme reaction. A solution of the test compound in dimethylsulfoxide (DMSO) was added at a suitable concentration to this solution.

ARK5/NUAK1 = molecular target: T2, ARK5/NUAK1 (Homo sapiens, UniProt O60285); test: Kinase screening, HotSpot assay (Reaction Biology); assay type: biochemical
T2 construct: purchased Reaction Biology Corporation
T2 sequence (O60285 1-661): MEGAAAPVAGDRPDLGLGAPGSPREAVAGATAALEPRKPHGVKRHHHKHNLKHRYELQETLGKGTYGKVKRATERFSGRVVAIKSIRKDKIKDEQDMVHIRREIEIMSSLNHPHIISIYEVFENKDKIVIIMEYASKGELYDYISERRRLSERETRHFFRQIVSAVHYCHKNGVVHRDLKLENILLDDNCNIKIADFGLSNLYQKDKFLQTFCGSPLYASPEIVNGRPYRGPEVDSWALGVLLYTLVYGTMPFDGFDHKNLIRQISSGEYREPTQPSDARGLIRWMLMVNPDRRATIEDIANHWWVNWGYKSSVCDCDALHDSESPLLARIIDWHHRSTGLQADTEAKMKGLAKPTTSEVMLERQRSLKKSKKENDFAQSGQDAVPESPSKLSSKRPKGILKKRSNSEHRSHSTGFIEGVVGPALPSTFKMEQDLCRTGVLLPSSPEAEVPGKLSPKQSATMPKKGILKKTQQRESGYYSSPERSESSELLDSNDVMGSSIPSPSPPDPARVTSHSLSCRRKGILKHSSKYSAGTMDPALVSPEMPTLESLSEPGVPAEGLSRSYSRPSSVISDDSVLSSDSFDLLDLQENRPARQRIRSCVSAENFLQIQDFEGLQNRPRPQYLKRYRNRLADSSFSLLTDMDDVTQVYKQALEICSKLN
Protocol: (§1) Kinase screening was performed using a “HotSpot” assay platform method by Reaction Biology Corporation. The reaction buffer used herein contained 20 mM HEPES (pH 7.5), 10 mM MgCl2, 1 mM EGTA, 0.02% Brij35, 0.02 mg/mL BSA, 0.1 mM Na3VO4, 2 mM DTT and 1% DMSO. The required cofactors were added in accordance with the kinase reaction. Freshly made buffer and cofactors were added at a concentration of 20 μM during the selected enzyme reaction. A solution of the test compound in dimethylsulfoxide (DMSO) was added at a suitable concentration to this solution. In order to initiate reaction, […] (specific activity […]) was added and incubated at room temperature for 2 hours. The test compound was screened at a starting concentration of 20 μM in a 10-dose IC50 mode. IC50 of Staurosporine used as a control drug was obtained at a starting concentration of 20 μM in a 10-dose IC50 mode.

JAK2 = molecular target: T3, JAK2 (Homo sapiens, UniProt O60674); test: Kinase screening, HotSpot assay (Reaction Biology); assay type: biochemical
T3 construct: purchased Reaction Biology Corporation
Protocol: as §1

JAK1 = molecular target: T4, JAK1 (Homo sapiens, UniProt P23458); test: Kinase screening, HotSpot assay (Reaction Biology); assay type: biochemical
T4 construct: purchased Reaction Biology Corporation
Protocol: as §1

JAK2(V617F) = molecular target: T5, JAK2(V617F) (Homo sapiens, UniProt O60674, V617F); test: Kinase screening, HotSpot assay (Reaction Biology); assay type: biochemical
T5 construct: purchased Reaction Biology Corporation
Protocol: as §1

ACK1 = molecular target: T6, ACK1 (Homo sapiens, UniProt Q07912); test: Kinase screening, HotSpot assay (Reaction Biology); assay type: biochemical
T6 construct: purchased Reaction Biology Corporation
Protocol: as §1

CYP 2C19 = CYP 2C19 (Homo sapiens, UniProt P33261); test: CYP450 assay (luminescence); assay type: in vitro ADME; conditions: CYP 2C19 enzyme with substrate, compound at 10 μM, read-out: inhibitory activity against human CYP 2C19
Protocol: (§2) The resulting substance was reacted with NADPH for 20 minutes at 37° C. and a detection reagent was added to terminate the reaction. After stabilization at room temperature for 20 minutes, a luminescence signal was measured.

CYP 2C9 = CYP 2C9 (Homo sapiens, UniProt P11712); test: CYP450 assay (luminescence); assay type: in vitro ADME; conditions: CYP 2C9 enzyme with substrate, compound at 10 μM, read-out: inhibitory activity against human CYP 2C9
Protocol: as §2

CYP 2D6 = CYP 2D6 (Homo sapiens, UniProt P10635); test: CYP450 assay (luminescence); assay type: in vitro ADME; conditions: CYP 2D6 enzyme with substrate, compound at 10 μM, read-out: inhibitory activity against human CYP 2D6
Protocol: as §2

T6 sequence (Q07912 whole entry): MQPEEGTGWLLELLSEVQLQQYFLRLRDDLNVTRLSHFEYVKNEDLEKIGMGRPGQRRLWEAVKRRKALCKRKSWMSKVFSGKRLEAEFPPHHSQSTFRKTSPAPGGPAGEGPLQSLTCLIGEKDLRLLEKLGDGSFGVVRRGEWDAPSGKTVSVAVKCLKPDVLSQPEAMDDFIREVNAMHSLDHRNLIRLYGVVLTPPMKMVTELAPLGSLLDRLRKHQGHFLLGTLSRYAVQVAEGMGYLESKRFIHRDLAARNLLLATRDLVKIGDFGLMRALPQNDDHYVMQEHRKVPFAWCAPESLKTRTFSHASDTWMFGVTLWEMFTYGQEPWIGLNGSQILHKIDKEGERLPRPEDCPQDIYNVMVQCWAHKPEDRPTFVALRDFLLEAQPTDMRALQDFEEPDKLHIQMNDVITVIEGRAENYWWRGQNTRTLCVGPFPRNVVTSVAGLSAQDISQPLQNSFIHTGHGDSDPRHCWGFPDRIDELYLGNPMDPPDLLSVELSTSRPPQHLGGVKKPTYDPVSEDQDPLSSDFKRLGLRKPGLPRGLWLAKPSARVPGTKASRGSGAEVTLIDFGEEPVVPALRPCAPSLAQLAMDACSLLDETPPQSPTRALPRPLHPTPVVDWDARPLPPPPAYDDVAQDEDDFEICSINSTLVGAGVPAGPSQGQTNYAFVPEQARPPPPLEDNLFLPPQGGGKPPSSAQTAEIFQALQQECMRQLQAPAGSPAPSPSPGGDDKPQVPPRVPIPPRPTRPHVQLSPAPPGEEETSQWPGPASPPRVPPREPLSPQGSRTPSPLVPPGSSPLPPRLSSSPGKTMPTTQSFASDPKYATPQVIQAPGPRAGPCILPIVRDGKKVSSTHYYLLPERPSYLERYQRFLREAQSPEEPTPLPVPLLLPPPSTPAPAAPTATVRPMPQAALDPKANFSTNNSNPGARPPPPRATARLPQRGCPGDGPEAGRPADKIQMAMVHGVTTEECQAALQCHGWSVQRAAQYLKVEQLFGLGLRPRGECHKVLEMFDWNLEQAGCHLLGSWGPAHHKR
T5 sequence (O60674 whole entry V617F): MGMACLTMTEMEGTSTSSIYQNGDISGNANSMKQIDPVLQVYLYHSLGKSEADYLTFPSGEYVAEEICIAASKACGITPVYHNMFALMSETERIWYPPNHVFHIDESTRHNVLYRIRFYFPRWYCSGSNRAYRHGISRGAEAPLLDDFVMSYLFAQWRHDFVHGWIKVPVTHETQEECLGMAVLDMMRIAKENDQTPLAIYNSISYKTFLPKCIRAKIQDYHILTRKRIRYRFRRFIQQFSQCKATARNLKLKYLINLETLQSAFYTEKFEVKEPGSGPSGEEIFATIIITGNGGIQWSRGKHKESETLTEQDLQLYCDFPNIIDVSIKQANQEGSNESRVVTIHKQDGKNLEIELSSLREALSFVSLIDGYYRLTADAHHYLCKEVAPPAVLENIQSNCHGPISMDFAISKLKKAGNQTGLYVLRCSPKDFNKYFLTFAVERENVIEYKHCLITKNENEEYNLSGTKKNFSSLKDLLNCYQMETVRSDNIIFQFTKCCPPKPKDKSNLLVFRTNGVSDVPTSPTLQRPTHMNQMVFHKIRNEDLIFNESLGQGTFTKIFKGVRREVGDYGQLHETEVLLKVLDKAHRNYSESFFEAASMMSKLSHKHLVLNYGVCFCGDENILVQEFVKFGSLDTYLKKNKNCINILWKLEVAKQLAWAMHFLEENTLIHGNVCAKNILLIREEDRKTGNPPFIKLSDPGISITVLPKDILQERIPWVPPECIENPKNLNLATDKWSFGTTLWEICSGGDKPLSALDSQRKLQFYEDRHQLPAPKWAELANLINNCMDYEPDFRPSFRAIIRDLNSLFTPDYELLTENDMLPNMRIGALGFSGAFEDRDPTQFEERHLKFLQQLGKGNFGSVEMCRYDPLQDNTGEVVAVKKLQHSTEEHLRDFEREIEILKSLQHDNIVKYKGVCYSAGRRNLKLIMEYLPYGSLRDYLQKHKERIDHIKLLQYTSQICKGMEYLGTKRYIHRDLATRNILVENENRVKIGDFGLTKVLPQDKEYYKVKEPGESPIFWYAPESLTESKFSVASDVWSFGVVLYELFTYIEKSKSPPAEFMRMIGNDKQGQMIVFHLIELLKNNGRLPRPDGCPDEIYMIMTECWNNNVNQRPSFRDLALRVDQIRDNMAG
Sequence of CYP 2D6 (P10635 whole entry): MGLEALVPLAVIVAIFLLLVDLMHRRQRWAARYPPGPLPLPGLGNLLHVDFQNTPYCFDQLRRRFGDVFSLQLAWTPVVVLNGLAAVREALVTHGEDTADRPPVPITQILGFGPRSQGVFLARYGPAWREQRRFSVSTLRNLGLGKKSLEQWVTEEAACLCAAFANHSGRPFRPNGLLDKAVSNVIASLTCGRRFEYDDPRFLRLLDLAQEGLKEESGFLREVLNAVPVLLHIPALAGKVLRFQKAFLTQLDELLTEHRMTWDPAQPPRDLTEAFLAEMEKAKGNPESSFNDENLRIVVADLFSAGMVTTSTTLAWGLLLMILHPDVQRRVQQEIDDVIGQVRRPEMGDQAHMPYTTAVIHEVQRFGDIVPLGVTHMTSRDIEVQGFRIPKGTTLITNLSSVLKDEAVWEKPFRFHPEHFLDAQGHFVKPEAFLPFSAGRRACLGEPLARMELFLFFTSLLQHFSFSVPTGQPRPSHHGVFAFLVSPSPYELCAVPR
T3 sequence (O60674 whole entry): as the sequence (O60674 whole entry V617F) above, with F617V counted along it
T4 sequence (P23458 whole entry): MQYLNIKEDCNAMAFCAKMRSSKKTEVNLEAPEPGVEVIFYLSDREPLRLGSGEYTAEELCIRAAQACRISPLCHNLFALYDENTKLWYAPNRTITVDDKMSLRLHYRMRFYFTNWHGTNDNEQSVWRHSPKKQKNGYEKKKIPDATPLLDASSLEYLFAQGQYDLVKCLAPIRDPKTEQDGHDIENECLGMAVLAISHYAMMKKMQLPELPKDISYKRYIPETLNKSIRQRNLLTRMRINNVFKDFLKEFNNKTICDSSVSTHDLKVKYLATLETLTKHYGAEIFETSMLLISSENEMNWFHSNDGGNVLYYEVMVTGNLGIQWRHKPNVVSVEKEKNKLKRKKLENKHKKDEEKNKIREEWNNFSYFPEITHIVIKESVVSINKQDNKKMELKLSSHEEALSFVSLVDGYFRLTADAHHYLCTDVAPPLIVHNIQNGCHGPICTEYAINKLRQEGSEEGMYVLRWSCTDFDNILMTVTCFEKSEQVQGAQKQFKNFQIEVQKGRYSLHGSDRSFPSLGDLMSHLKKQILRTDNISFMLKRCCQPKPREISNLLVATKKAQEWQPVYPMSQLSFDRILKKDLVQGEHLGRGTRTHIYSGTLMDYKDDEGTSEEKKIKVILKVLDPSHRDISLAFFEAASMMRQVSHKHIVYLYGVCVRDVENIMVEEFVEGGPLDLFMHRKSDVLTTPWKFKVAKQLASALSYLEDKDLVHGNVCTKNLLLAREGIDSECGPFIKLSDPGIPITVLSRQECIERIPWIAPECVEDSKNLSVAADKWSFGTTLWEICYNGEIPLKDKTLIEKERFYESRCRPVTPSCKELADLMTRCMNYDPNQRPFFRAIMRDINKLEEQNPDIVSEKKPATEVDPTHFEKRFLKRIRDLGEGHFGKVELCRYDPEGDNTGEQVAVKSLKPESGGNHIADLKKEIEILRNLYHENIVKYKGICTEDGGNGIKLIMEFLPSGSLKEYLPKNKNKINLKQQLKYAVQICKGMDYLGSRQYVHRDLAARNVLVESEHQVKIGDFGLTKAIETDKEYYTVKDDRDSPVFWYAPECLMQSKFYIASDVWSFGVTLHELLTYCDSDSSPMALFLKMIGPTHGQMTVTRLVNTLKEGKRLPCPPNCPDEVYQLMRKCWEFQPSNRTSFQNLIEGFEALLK
Sequence of CYP 2C9 (P11712 whole entry): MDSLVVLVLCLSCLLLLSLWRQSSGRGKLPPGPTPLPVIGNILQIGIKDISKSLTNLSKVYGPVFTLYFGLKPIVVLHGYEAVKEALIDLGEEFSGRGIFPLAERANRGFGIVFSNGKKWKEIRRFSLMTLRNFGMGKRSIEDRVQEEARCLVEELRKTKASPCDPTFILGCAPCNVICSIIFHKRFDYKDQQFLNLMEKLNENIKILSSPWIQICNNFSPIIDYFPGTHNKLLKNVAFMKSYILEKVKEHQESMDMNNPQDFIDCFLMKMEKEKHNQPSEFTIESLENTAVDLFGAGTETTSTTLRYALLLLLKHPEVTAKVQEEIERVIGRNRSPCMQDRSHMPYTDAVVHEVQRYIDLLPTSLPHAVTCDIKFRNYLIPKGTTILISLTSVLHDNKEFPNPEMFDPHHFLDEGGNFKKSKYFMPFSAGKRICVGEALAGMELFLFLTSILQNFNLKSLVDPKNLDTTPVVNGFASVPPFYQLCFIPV
Sequence of CYP 2C19 (P33261 whole entry): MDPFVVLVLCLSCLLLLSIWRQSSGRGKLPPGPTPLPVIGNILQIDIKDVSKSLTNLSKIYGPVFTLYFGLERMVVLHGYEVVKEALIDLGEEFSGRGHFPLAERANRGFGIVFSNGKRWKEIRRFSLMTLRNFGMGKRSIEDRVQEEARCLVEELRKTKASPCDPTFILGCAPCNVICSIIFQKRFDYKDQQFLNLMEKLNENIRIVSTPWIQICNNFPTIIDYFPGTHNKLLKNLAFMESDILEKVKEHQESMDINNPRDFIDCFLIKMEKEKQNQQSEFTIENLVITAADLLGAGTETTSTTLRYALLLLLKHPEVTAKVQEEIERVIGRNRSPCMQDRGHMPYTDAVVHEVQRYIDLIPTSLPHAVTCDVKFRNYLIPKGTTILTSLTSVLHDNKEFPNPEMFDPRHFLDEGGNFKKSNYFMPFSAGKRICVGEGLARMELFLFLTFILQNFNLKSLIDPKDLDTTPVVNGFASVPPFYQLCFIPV

SMILES: Clc1cnc(Nc2ccc(OCCN3CCCC3)cc2)nc1NCc1ccco1 [Compound 5, 5-chloro-4-(furan-2-yl)methylamino-2-[4-{2-(pyrrolidin-1-yl)ethoxy}phenylamino]pyrimidine]
- IC50 (FLT3): 2.87 nM
- IC50 (ARK5/NUAK1): 2.4 nM
- IC50 (JAK2): 8.85 nM
- IC50 (JAK1): 16.1 nM
- IC50 (JAK2(V617F)): 25.6 nM
- IC50 (ACK1): 51.3 nM
- inhibition at 20 min, 10 µM (CYP 2C19): 15.9%
- inhibition at 20 min, 10 µM (CYP 2C9): < 1%
- inhibition at 20 min, 10 µM (CYP 2D6): 14.4%
